Test results taken from patent EP0038572A1, “1-Nitro-9-hydroxyalkylaminoacridines or their salts” (priority 1980, dated 1981).

How the values were obtained:
[1] = General pharmacological examination (circulatory, spasmolytic, central nervous system); type: in vivo, mice, rats and rabbits
Description: (§1) Pharmacological examination of the compound C-857 was carried out in mice, rats and rabbits. The acute, subacute, and long-term toxicity were studied in rats and rabbits (orally and intraperitoneally) and in mice (intraperitoneally). […] In the subacute toxicity studies (3 weeks) 1/60 and 1/120 of LD50 were considered; in the long-term toxicity evaluations (3 months) - 1/200 and 1/400 of LD50.
(§2) In a dose corresponding to 1/2 of LD50 it inhibits the spontaneous mobility and shortens hexobarbital anaesthesia. […] Its immunosuppresive action measured in contact allergy tests, local transplant-host reaction tests and post adjuvant multiarticular inflammation is minimal and appears only after the total dose corresponding to 1/5 of LD50.

[2] = Subacute toxicity studies (3 weeks); type: in vivo, mice, rats and rabbits
Description: as §1
About 15-40 % of total number of mice died after a dose of 1/120 of LD50. The increase in the number of leucocytes (particularly in rabbits) and decrease in relative number of lymphocytes were observed. However, no changes in the number of red cells were found. […] The preparation C-857 induced some drop of the urine level in rabbits.

[3] = Immunosuppressive action (contact allergy, local transplant-host reaction, post adjuvant multiarticular inflammation tests); type: in vivo; conditions: appears only after the total dose corresponding to 1/5 of LD50
Text: as §2

[4] = Vomiting effect in pigeons; type: in vivo
Crocker sarcoma (Sa-180) = experiment: Growth inhibition of Crocker sarcoma (Sa-180) in mice; type: in vivo; conditions: intraperitoneally, tumor weight vs control
Description: The growth inhibition of Crocker sarcoma (Sa-180) in mice.
For these experiments three-months old mice of about 25 g in weight were used. Each was inoculated with mouse sarcoma (Sa-180) and then they were divided into groups: a group of 10 control mice, and two to four test groups of 7 mice each.
The compounds to be investigated were administered intraperitoneally in appropriate doses after previous determination of maximum tolerance dose.
The percent difference between the mean weight of tumors isolated from control and test mice was accepted as a criterion for the evaluation of antineoplastic activity of the compounds, taking into account the toxic effects.
After doses of between 0.2-0.8 mg/kg the percent of inhibition was 44-86% respectively. Similarly, for the preparation allocated the code number C-934, i.e. 1-nitro-9-(hydroxybutylamino)acridine hydrochloride, after doses of between 0.2-0.4 mg/kg percent of inhibition was 45-60 % respectively.

[5] = Long-term toxicity evaluations (3 months); type: in vivo, mice, rats and rabbits
Description: as §1
The preparation C-857 was found not to change the spleen-liver index.
No changes of urea and creatinine content were found.

[6] = Acute toxicity in rabbits; conditions: rabbit, in vivo, route not given
Description: as §1

[7] = tested on: cells forming colonies in marrow; set-up: species or system mice; conditions: mouse, in vivo
Text: The effect of action of compound C-857 is similar to that of Bleomicine which is non-toxic for marrow.

Acute toxicity in mice = type: in vivo; conditions: intraperitoneally
Text: The acute, subacute, and long-term toxicity were studied in rats and rabbits (orally and intraperitoneally) and in mice (intraperitoneally).

Acute toxicity in rats = conditions: rat, in vivo, iv, intravenously
[8] = dose corresponding to 1/2 of LD50
[9] = intravenously, doses increasing to 20 mg/kg

Cl.O=[N+]([O-])c1cccc2nc3ccccc3c(NCCO)c12 [Example C-857, 1-nitro-9-(2-hydroxyethylamino)-acridine hydrochloride]
hexobarbital anaesthesia [1, 8]: shortens
spontaneous mobility [1, 8]: inhibits
analgestic or anti-conclusive activity ([1]; in vivo): does not show any
effect on central nervous system ([1]; in vivo): weak and irregular
effect on the circulatory system [1, 9]: did not exert any significant effect
spasmolytic action [1, 9]: weak
effects observed in the subacute toxicity investigations ([2]; 3 weeks, 1/60 and 1/120 of LD50): moult, dyspndea, lack of thirst, diarrhoea, and loss of body weight
total number of mice died ([2]; mice, dose of 1/120 of LD50, subacute): 15-40%
urine level ([2]; rabbits, subacute): some drop
Liver and kidney function tests ([2]; subacute): no pathological abnormalities
histologic studies, findings ([2]; subacute): nectrotic inflammation of the liver capsule and peritoneum of intestine wall
histologic studies, interneal organs (liver, kidney, thymus gland) ([2]; subacute): No pathological abnormalities
number of red cells ([2]; subacute): no changes
relative number of lymphocytes ([2]; subacute): decrease
number of leucocytes ([2]; subacute, particularly in rabbits): increase
immunosuppresive action [3]: minimal
vomiting effect [4]: did not exert vomiting effect
percent of inhibition (Crocker sarcoma (Sa-180); doses of between 0.2-0.8 mg/kg): 44-86%
general changes in long-term toxicity observation ([5]; 3 months, 1/200 and 1/400 of LD50): decrease in physical activity, lack of thirst or occasional diarrhoea
local action ([5]; administrated intraperitoneally): locally irritating action
leucocytes (hematologic studies) ([5]; in rabbits and rats): leucocytosis
relative content of eosinophis ([5]; in rabbits and rats): decrease
value of hematocrit ([5]; in rabbits, hematologic studies): decrease
activity of AspAT and ALAT enzymes ([5]; in vivo): no changes
activity of alkaline phosphatase ([5]; in vivo): Slight changes
urea and creatinine content ([5]; in vivo): No changes
changes in liver and kidneys ([5]; long-term): Insignificant changes
changes in thymus gland and intestine ([5]; long-term): no changes
spleen-liver index ([5]; long-term): not to change
LD50 [6]: 11.4 mg/kg
myclo- toxic effect on cells forming colonies in marrow [7]: not to produce myclo- toxic effect
maximal tolerated dose, LD10 (Acute toxicity in mice): 2.5 mg/kg
LD50 (Acute toxicity in mice; mouse, in vivo, ip): 10.6 mg/kg
LD50 (Acute toxicity in rats): 9.2 mg/kg

Cl.O=[N+]([O-])c1cccc2nc3ccccc3c(NCCCCO)c12 [Example C-934, 1-nitro-9(4-hydroxybutylamino)acridine hydrochloride]
percent of inhibition (Crocker sarcoma (Sa-180); doses of between 0.2-0.4 mg/kg): 45-60%
